Assays:
[1] = tested on: Mr = 72,000 brush border membrane protein; settings: 10 μM cyclic AMP
Description: The preparation of the rat renal proximal brush border membrane vesicles was accomplished in the following manner: When the systolic blood pressure in the DOCA and the 2K1C rat groups became elevated compared with each of the control groups (usually in 3-4 weeks), the kidney cortex was removed to prepare the proximal brush border membrane vesicles by a calcium precipitation method as described in Kempson et al., Inhibition of Renal Brush Border Phosphate Transport and Stimulation of Renal Gluconeogenesis by Cyclic AMP and Parathyroid Hormone, Biochem., Pharmacol., 32:pp. 1533-37 (1983). Vesicles were utilized only if there was at least an 8-fold enrichment in gamma-glutamyl transpeptidase activity in the proximal brush border membrane fraction compared to the original cortical homogenate. […]
The test results reported herein were determined by SDS polyacrylamide gel electrophoresis, autoradiography and densitometry. […] Protein concentration was determined by the method of Bradford using bovine serum albumin as a standard.
Autoradiography and densitometry were performed in accordance with Laminski, et al., Phosphorylation of Endogenous Protein in Primate Kidney. […] Scan traces were recorded with an Ultroscan XL laser densitometer (Pharmacia, LKB) and analyzed by using the computer GelScan XL Software (Version 2.1, Pharmacia).

[2] = Systolic blood pressure by tail-cuff method in DOCA-salt hypertensive rats; format: in vivo, rat; settings: mean±SEM
Description: (§1) Male Sprague-Dawley rats, weighing 125-150 g (Charles River, Wilmington, Mass.), were randomly divided into three groups: (1) DOCA-salt group-rats underwent unilateral nephrectomy and were given an initial injection of 12.5 mg of deoxycorticosterone acetate (DOCA) followed by 6.5 mg weekly which was coupled with 1 percent saline as drinking water (Pamani et al. Altered Activity of the Sodium-Potassium Pump in Arteries of Rats with Steroid Hypertension, Clin. Sci. Mol. Med., 55:pp. 41s-43s (1978); (2) Uninephrectomized control group (UNE)-rats underwent unilateral nephrectomy and were given tap water ad libitum; (3) Normal group-normal rats drank tap water ad libitum and were not subjected to surgery. All three groups were maintained on normal rat chow. Systolic blood pressure was measured weekly by the tail-cuff method.
Referring to FIG. 1, there is shown a plot of systolic blood pressure in mm Hg versus time in days. The study involved ten rats in each of the three DOCA categories: (a) DOCA-salt; (b) UNE-uninephrectomized; and (c) NOR, normal group. The 2K1C study involved eight rats in each of the three groups: (a) 2K1C; (b) SHAM, sham-operated group; and (c) NOR, normal group.
The systolic blood pressure in the 2K1C rats increased from 121.4±1.7 mm Hg to 137.6±3.0 mm Hg by the first week after surgery and to 173.5±4.4 mm Hg by the 21st day (p<0.001). […]

[3] = tested on: Mr = 72,000 brush border membrane protein; assay: Phosphorylation of 72,000 Mr renal brush border membrane protein from treated rats (SDS-PAGE, autoradiography, densitometry); format: in vivo, rat; settings: for relative area units under the peak in the densitometry tracings of autoradiogram of the Mr = 72,000 brush border membrane protein: mean ± SEM
Description: as §1, with “([…]” for “(Pamani”, “method. […] J. Biol. Chem. 257:pp 992-99 (1982). […] Anal Biochem, 72:pp. 248-54 (1976). Autoradiography and densitometry were performed in accordance with […], et al., Phosphorylation of Endogenous Protein in Primate Kidney. […] Biochem. Physiol. 103B:pp 267-73 (1992). […] Data is expressed as mean±SEM, with statistical significance being calculated by Student's t test and the ANOVA test.” for “method.”

Compound | influence of cAMP on phosphorylation of the Mr=72,000 protein ([1]; membranes from 2K1C, Sham and Normal rats) | effect of addition of cyclic AMP on phosphorylation of the Mr=72,000 protein ([1]; membranes from DOCA, UNE and Normal rats) | systolic blood pressure ([2]; 7th day of treatment) [mm Hg] | systolic blood pressure ([2]; 21st day, p<0.001) [mm Hg] | relative area units under the peak in the densitometry tracings of autoradiogram of the Mr = 72,000 brush border membrane protein ([3]; +cAMP (10 μM cyclic AMP in incubation mixture)) [relative area units] | phosphorylation of the Mr=72,000 protein compared with UNE and normal rats ([3]; DOCA group rats, p<0.01) | relative area units under the peak in the densitometry tracings of autoradiogram of the Mr = 72,000 brush border membrane protein ([3]; −cAMP (no cyclic AMP in incubation mixture)) [relative area units]
Nc1ncnc2c1ncn2[C@@H]1O[C@@H]2COP(=O)(O)O[C@H]2[C@H]1O [cyclic AMP] | not influenced | did not affect | – | – | – | – | –
CC(=O)OCC(=O)[C@H]1CC[C@H]2[C@@H]3CCC4=CC(=O)CC[C@]4(C)[C@H]3CC[C@]12C [DOCA, deoxycorticosterone acetate] | – | – | 128.9±2.1 | 188.2±5.3 | 1.218 ± 0.33 | significant attenuation | 1.389 ± 0.37
